Results from ChEMBL document CHEMBL1275597, “In vitro activity of the aminoglycoside antibiotic arbekacin against Acinetobacter baumannii-calcoaceticus isolated from war-wounded patients at Walter Reed Army Medical Center” (Antimicrob Agents Chemother, 2010).
Values after ≈ are worked out from the molar mass of the structure shown. Active and inactive are the calls of the source. No cut-off for these calls is given here.

Columns and labels:
[1] = system: Acinetobacter calcoaceticus/baumannii complex; assay: Antimicrobial activity against Acinetobacter baumannii-calcoaceticus obtained from war-wounded patient assessed as susceptible isolates by tube dilution assay; type: functional
Homo sapiens = assay: Cmax in war-wounded patient infected with Acinetobacter baumannii-calcoacetius at 5 to 7 mg/kg/day; type: ADME, organism-based; details: in vivo
[2] = system: Acinetobacter calcoaceticus/baumannii complex; assay: (§1) Antimicrobial activity against Acinetobacter baumannii-calcoaceticus obtained from war-wounded patient assessed as susceptible isolates; type: functional
[3] = as §1; type: functional, Acinetobacter calcoaceticus/baumannii complex
[4] = Antimicrobial activity against Acinetobacter baumannii-calcoaceticus obtained from war-wounded patient assessed as zone of inhibition at 128 ug/ml by disk diffusion method; type: functional; details: Acinetobacter calcoaceticus/baumannii complex; read-out: IZ
[5] = Antimicrobial activity against Acinetobacter baumannii-calcoaceticus obtained from war-wounded patient; type: functional; details: Acinetobacter calcoaceticus/baumannii complex
[6] = Cmax in war-wounded patient infected with Acinetobacter baumannii-calcoacetius at 2 to 3 mg/kg/day; type: ADME, organism-based; details: human, in vivo
[7] = Antimicrobial activity against Acinetobacter baumannii-calcoaceticus […] in presence of imipenem; type: functional, Acinetobacter calcoaceticus/baumannii complex
[8] = Antimicrobial activity against Acinetobacter baumannii-calcoaceticus obtained from war-wounded patient assessed as susceptible isolates in presence of beta-lactamase inhibitor Sulbactam; type: functional, Acinetobacter calcoaceticus/baumannii complex
[9] = Antimicrobial activity against Acinetobacter baumannii-calcoaceticus […] in presence of meropenem; type: functional, Acinetobacter calcoaceticus/baumannii complex

Compound	Activity [3]	further results
COLISTIN		Activity [1]: 100%
GENTAMICIN [listing 1 of 2 here]		Cmax (Homo sapiens): < 4000 ng/mL
GENTAMICIN [listing 2 of 2 here]		Activity [2]: 14.5%
O=C(O)c1cn(C2CC2)c2cc(N3CCNCC3)c(F)cc2c1=O [CIPROFLOXACIN]	14.5%	
C[C@H]1COc2c(N3CCN(C)CC3)c(F)cc3c(=O)c(C(=O)O)cn1c23.C[C@H]1COc2c(N3CCN(C)CC3)c(F)cc3c(=O)c(C(=O)O)cn1c23.O [LEVOFLOXACIN]	20.5%	
CCN1CCN(C(=O)N[C@@H](C(=O)N[C@@H]2C(=O)N3[C@@H]2SC(C)(C)[C@@H]3C(=O)O)c2ccccc2)C(=O)C1=O [PIPERACILLIN]	9.8%	
COc1c(N2C[C@@H]3CCCN[C@@H]3C2)c(F)cc2c(=O)c(C(=O)O)cn(C3CC3)c12		Activity [2]: inactive
NCC[C@H](O)C(=O)N[C@@H]1C[C@H](N)[C@@H](O[C@H]2O[C@H](CN)CC[C@H]2N)[C@H](O)[C@H]1O[C@H]1O[C@H](CO)[C@@H](O)[C@H](N)[C@H]1O [ARBEKACIN]	86.5%	zone of inhibition at 128 µg/mL [4]: 13 mm; MIC [5]: 2 µg/mL (≈ 3.62 µM); Cmax [6]: 20000 ng/mL
CC(C)(O/N=C(\C(=O)N[C@@H]1C(=O)N2C(C(=O)[O-])=C(C[n+]3ccccc3)CS[C@H]12)c1csc(N)n1)C(=O)O [CEFTAZIDIME]	25%	
CO/N=C(\C(=O)N[C@@H]1C(=O)N2C(C(=O)[O-])=C(C[N+]3(C)CCCC3)CS[C@H]12)c1csc(N)n1 [CEFEPIME]	32.7%	
C[C@@H](O)[C@H]1C(=O)N2C(C(=O)O)=C(SCCNC=N)C[C@H]12 [IMIPENEM ANHYDROUS]	55%	fractional inhibitory concentration index (FICI) [7]: 0.375
CN(C)c1ccc(O)c2c1C[C@H]1C[C@H]3[C@H](N(C)C)C(O)=C(C(N)=O)C(=O)[C@@]3(O)C(O)=C1C2=O [MINOCYCLINE]	92.6%	
POLYMYXIN B		Activity [1]: 100%
CC1(C)S[C@@H]2[C@H](NC(=O)[C@H](N)c3ccccc3)C(=O)N2[C@H]1C(=O)O [AMPICILLIN]		Activity [8]: 67.3%
NC[C@H]1O[C@H](O[C@H]2[C@H](O)[C@@H](O[C@H]3O[C@H](CO)[C@@H](O)[C@H](N)[C@H]3O)[C@H](N)C[C@@H]2N)[C@H](N)C[C@@H]1O [TOBRAMYCIN]	56%	
NCC[C@H](O)C(=O)N[C@@H]1C[C@H](N)[C@@H](O[C@H]2O[C@H](CN)[C@@H](O)[C@H](O)[C@H]2O)[C@H](O)[C@H]1O[C@H]1O[C@H](CO)[C@@H](O)[C@H](N)[C@H]1O [AMIKACIN]	59%	
COc1c(N2CCNC(C)C2)c(F)cc2c(=O)c(C(=O)O)cn(C3CC3)c12 (stereo not drawn) [GATIFLOXACIN]	27%	
C[C@@H](O)[C@H]1C(=O)N2C(C(=O)O)=C(S[C@@H]3CN[C@H](C(=O)N(C)C)C3)[C@H](C)[C@H]12 [MEROPENEM]	53.7%	fractional inhibitory concentration index (FICI) [9]: 0.5
